According to patent US11300640B2, “Protein reporters for ultrasensitive detection methods” (The Trustees of the University of Pennsylvania, priority 2017, dated 2022):
Entries after “also recorded” stand apart in the source; their conditions may differ.

Tests used:
[1] = 129Xe hyper-CEST NMR of purified MBP and MBP mutants; settings: for T1off / T1on / saturation contrast: 100 nM WT MBP
From the text: Briefly, HP ^129Xe was generated using the spin-exchange optical pumping (SEOP) method with a home-built ^129Xe polarizer based on the IGI.Xe.2000 commercial model by GE. A Shark 65 W tunable ultra-narrow band diode laser (OptiGrate) set to 795 nm was used for optical pumping of Rb vapor. A gas mixture of 88% helium, 10% nitrogen, and 2% natural abundance xenon (Linde Group, N.J.) was used as the hyperpolarizer input. ^129Xe hyperpolarization level was roughly 10-15%. For each data point in the hyper-CEST z-spectra, HP ^129Xe was bubbled into the NMR tube through capillaries for 20 seconds, followed by a 3-second delay to allow bubbles to collapse. A Dsnob saturation pulse with 690 Hz bandwidth was used. Pulse length tpulse=3.80 ms, field strength B1, max=77 μT, number of pulses npulse=400, saturation time Tsat=1.52 s. NMR experiments were performed using a Bruker BioDRX 500 MHz NMR spectrometer and 10-mm PABBO probe, at 300 K. A 900 hard pulse of this probe has a pulse length of 22 μs. Unless otherwise noted, the protein concentration used was 80 μM, with 0.1% (v/v) Pluronic L81 (Aldrich) added to mitigate foaming.
Briefly, hyperpolarized (hp)^129Xe was generated using the spin-exchange optical pumping (SEOP) method with a home-built ^129Xe polarizer based on the IGI.Xe.2000 commercial model by GE. A Shark 65 W tunable ultra-narrow band diode laser (OptiGrate) set to 795 nm was used for optical pumping of Rb vapor. A gas mixture of 88% helium, 10% nitrogen, and 2% natural abundance xenon (Linde Group, N.J.) was used as the hyperpolarizer input. ^129Xe hyperpolarization level was roughly 10-15%. For each data point in the hyper-CEST z-spectra, hp ^129Xe was bubbled into the NMR tube through capillaries for 20 s, followed by a 3-s delay to allow bubbles to collapse. A d-SNOB saturation pulse with 690 Hz bandwidth was used. Pulse length, tpulse=3.80 ms; field strength B1,max=77 μT; number of pulses, npulse=400; saturation time, Tsat=1.52 s. NMR experiments were performed using a Bruker BioDRX 500 MHz NMR spectrometer and 10-mm PABBO probe, at 300 K. A 900 hard pulse of this probe has a pulse length of 22 μs. Unless otherwise noted, the protein concentration used was 80 μM, with 0.1% (v/v) Pluronic L81 (Aldrich) added to mitigate foaming. […] Pulse length, Tpulse=1.0496 ms; field strength, B1max=279 μT. Both on-resonance and off-resonance data were fitted with first-order exponential decay curves.

[2] = system: BL21(DE3) E. coli; experiment: Hyper-CEST of MBP expressed in E. coli (pET-MBP plasmid); assay type: cell-based; settings: for Contrast, corrected: contrast of non-induced E. coli subtracted; for T1off / T1on: OD600=9; for saturation contrast: OD600=9, +95/−95 ppm
From the text: All cell solutions were normalized to OD600=9. Saturation frequencies of Dsnob-shaped pulses were positioned at +95 ppm and −95 ppm, referenced to the Xe(aq) peak, for on- and off-resonance, respectively. Pulse length, τpulse=1.0496 ms; field strength, B1,max=279 μT. Both on-resonance and off-resonance data were fitted with first-order exponential decay curves.

[3] = MBP fluorescence quenching by maltose; assay type: binding; settings: 4 μM MBP, 400 μM maltose, 20 mM HEPES pH 7.4, excitation 280 nm
Experimental: Fluorescence spectra were obtained on a Tecan Infinite M1000 PRO microplate reader using black 96 well flat-bottom microplates (Grenier Bio-One). […] Excitation was at 280 nm and emission was scanned from 300 to 400 nm in 1 nm increments. All fluorescence assays were performed in triplicate and averaged. Fluorescence spectra were background corrected by subtracting the fluorescence spectrum of the well solution in the absence of protein.

[4] = design: Ka of Xe binding / Ka for Xe binding to MBP+βCD: unit not given here; settings: cited from earlier work; for xenon association constant: room temperature
[5] = biological target: MBP (Escherichia coli, UniProt P0AEX9); settings: binding to MBP; cited from earlier work
[6] = 129Xe hyper-CEST NMR of GFP-RBP mutants
Experimental: To evaluate whether GFP-RBP(L19A) reports any Xe hyper-CEST contrast, a hyper-CEST z-spectrum was acquired from 10 μM GFP-RBP(L19A) in the presence and absence of ribose. Multiple selective Dsnob-shaped saturation pulses were scanned over the chemical shift range of 93-358 ppm in 5 ppm steps, and the ^129Xe(aq) signal was measured as a function of saturation pulse offset (FIG. 55).
To assess the detection sensitivity of GFP-RBP(L19A), time-dependent saturation transfer experiments were performed by measuring Xe(aq) polarization as a function of saturation time. Shaped saturation pulses were applied at the chemical shift of Xe@RBP(L19A)closed, and the residual aqueous ^129Xe signal after saturation transfer was measured as an on-resonance CEST response. Saturation frequencies of Dsnob-shaped pulses were positioned at +42.5 and −42.5 ppm, referenced to the Xe(aq) peak, for on- and off-resonance, respectively. The pulse length was 1.727 ms, and the field strength was 170 μT. The normalized difference between on- and off-resonance signals was represented by the saturation contrast.

[7] = bla hydrolase activity assay pre- and post-CEST; assay type: biochemical; settings: 5 nM enzyme, 450 μM nitrocefin, 50 mM Tris pH 7.4, 5% DMSO
Experimental: The hydrolysis of nitrocefin was monitored at A482 using an Infinite M1000 Pro plate reader (Tecan).
Product formation was monitored at A482 using an Infinite M1000 Pro plate reader (Tecan). The assays were performed in triplicate for pre- and post-hyper CEST bla(I263A) and bla(I279N) samples.

[8] = RBP from E. coli; read-out: Kd for ribose; cited from earlier work
[9] = induced E. coli with maltose, 6±4 μM MBP
[10] = induced E. coli without maltose, 15±6 μM MBP

maltose binding protein [MBP]
T1off ([1]; 0 μM maltose): 44 ± 3 s
T1on ([1]; 0 μM maltose): 41 ± 2 s
saturation contrast ([1]; 0 μM maltose, pH 7.2 PBS, 300 K): 0.022±0.004
T1off ([1]; 0.1 μM maltose): 41 ± 3 s
T1on ([1]; 0.1 μM maltose): 34 ± 1 s
saturation contrast ([1]; 0.1 μM maltose): 0.050±0.007
T1off ([1]; 0.3 μM maltose): 43 ± 1 s
T1on ([1]; 0.3 μM maltose): 35 ± 1 s
saturation contrast ([1]; 0.3 μM maltose): 0.05±0.01
T1off ([1]; 0.5 μM maltose): 39 ± 1 s
T1on ([1]; 0.5 μM maltose): 26.3 ± 0.9 s
saturation contrast ([1]; 0.5 μM maltose): 0.11±0.01
T1off ([1]; 1 μM maltose): 50 ± 1 s
T1on ([1]; 1 μM maltose): 32.7 ± 0.7 s
saturation contrast ([1]; 1 μM maltose): 0.118±0.007
T1off ([1]; 3 μM maltose): 46 ± 2 s
T1on ([1]; 3 μM maltose): 26 ± 1 s
saturation contrast ([1]; 3 μM maltose): 0.161±0.004
T1off ([1]; 1 mM maltose): 55 ± 3 s
T1on ([1]; 1 mM maltose): 21.8 ± 0.6 s
saturation contrast ([1]; 1 mM maltose): 0.26±0.01
T1on ([1]; 1 mM maltose, listed as WT MBP): 21.8 ± 0.7 s
lowest maltose concentration readily detected (detection threshold) ([1]; 100 nM protein sensor): 100 nM
downfield saturation response in z-spectrum ([1]; 80 μM MBP, 1 mM β-cyclodextrin): no downfield Xe@MBP peak; also recorded: no downfield saturation response
saturation response in z-spectrum ([1]; 80 μM protein, without maltose): only a single saturation response
Contrast per μM MBP ([2]; E. coli with maltose): 0.05 ± 0.03
Contrast, corrected ([2]; E. coli with maltose): 0.28
Contrast per μM MBP ([2]; E. coli without maltose): 0.013 ± 0.005
Contrast, corrected ([2]; E. coli without maltose): 0.19
increase in observed CEST contrast generated by maltose ([2]; background subtracted, normalized to MBP concentration): 3.7 fold
T1off [2, 9]: 16.7 ± 0.6 s
T1on [2, 9]: 4.94 ± 0.10 s
saturation contrast [2, 9]: 0.60±0.02
T1off [2, 10]: 9.3 ± 0.3 s
T1on [2, 10]: 5.35 ± 0.17 s
saturation contrast [2, 10]: 0.40±0.06
magnitude of fluorescence quenching by maltose [3]: 22%
Ka for Xe binding to MBP+maltose ([4]; 1H-15N HSQC NMR): too low to measure
Ka for Xe binding to MBP+βCD ([4]; 1H-15N HSQC NMR): 20±10
Ka of Xe binding ([4]; MBP in the open conformation, HSQC NMR): 20±10
Xe binding affinity (association constant) ([4]; experimentally determined literature values): 20 ± 10 M⁻¹

hemoglobin [reference compound]
xenon association constant [4]: around 200 M^−1

OC[C@H]1O[C@@H]2O[C@H]3[C@H](O)[C@@H](O)[C@@H](O[C@H]4[C@H](O)[C@@H](O)[C@@H](O[C@H]5[C@H](O)[C@@H](O)[C@@H](O[C@H]6[C@H](O)[C@@H](O)[C@@H](O[C@H]7[C@H](O)[C@@H](O)[C@@H](O[C@H]8[C@H](O)[C@@H](O)[C@@H](O[C@H]1[C@H](O)[C@H]2O)O[C@@H]8CO)O[C@@H]7CO)O[C@@H]6CO)O[C@@H]5CO)O[C@@H]4CO)O[C@@H]3CO [βCD, β-cyclodextrin]
Kd [5]: 1800 nM

myoglobin [reference compound]
xenon association constant [4]: around 200 M^−1

GFP-RBP(L19A): fusion of GFP and ribose binding protein with L19A mutation (SEQ ID NO: 46)
saturation contrast (maximum) ([6]; 100 nM GFP-RBP(L19A), pulses at +42.5/−42.5 ppm): 0.30±0.01
saturation response in z-spectrum ([6]; 10 μM protein, unliganded (no ribose)): only a single saturation response

B1: I263A: bla having an I263A mutation (SEQ ID NO: 5) (protein)
chain: MSIQHFRVALIPFFAAFCLPVFAHPETLVKVKDAEDQLGARVGYIELDLNSGKILESFRPEERFPMMSTFKVLLCGAVLSRVDAGQEQLGRRIHYSQNDLVEYSPVTEKHLTDGMTVRELCSAAITMSDNTAANLLLTTIGGPKELTAFLHNMGDHVTRLDRWEPELNEAIPNDERDTTMPAAMATTLRKLLTGELLTLASRQQLIDWMEADKVAGPLLRSALPAGWFIADKSGAGERGSRGIIAALGPDGKPSRIVVAYTTGSQATMDERNRQIAEIGASLIKHW
modifications: TEM-1 beta-lactamase with a I263A mutation (mutation at residue 259)
Initial Rate, after CEST ([7]; listed as bla(I263A)): 0.153±0.009 A482 min^−1
Initial Rate, before CEST ([7]; listed as bla(I263A)): 0.142±0.002 A482 min^−1

B2: ribose binding protein (protein)
chain: KDTIALVVSTLNNPFFVSLKDGAQKEADKLGYNLVVLDSQNNPAKELANVQDLTVRGTKILLINPTDSDAVGNAVKMANQANIPVITLDRQATKGEVVSHIASDNVLGGKIAGDYIAKKAGEGAKVIELQGIAGTSAARERGEGFQQAVAAHKFNVLASQPADFDRIKGLNVMQNLLTAHPDVQAVFAQNDEMALGALRALQTAGKSDVMVVGFDGTPDGEKAVNDGKLAATIAQLPDQIGAKGVETADKVLKGEKVQAKYPVDLKLVVKQ
modifications: Native amino acid sequence of RBP for expression in E. coli
Kd [8]: 130 nM

B3: RBP(L19A): ribose binding protein having a L19A mutation (SEQ ID NO: 44) (protein)
chain: KDTIALVVSTLNNPFFVSAKDGAQKEADKLGYNLVVLDSQNNPAKELANVQDLTVRGTKILLINPTDSDAVGNAVKMANQANIPVITLDRQATKGEVVSHIASDNVLGGKIAGDYIAKKAGEGAKVIELQGIAGTSAARERGEGFQQAVAAHKFNVLASQPADFDRIKGLNVMQNLLTAHPDVQAVFAQNDEMALGALRALQTAGKSDVMVVGFDGTPDGEKAVNDGKLAATIAQLPDQIGAKGVETADKVLKGEKVQAKYPVDLKLVVKQ
modifications: Amino acid sequence of RBP(L19A)
xenon binding affinity, closed conformation ([4]; 1H-15N HSQC NMR): 40 ± 20 M⁻¹
xenon binding affinity, open conformation ([4]; 1H-15N HSQC NMR): 70 ± 30 M⁻¹

B4: I279N: bla having an I279N mutation (SEQ ID NO: 6) (protein)
chain: MSIQHFRVALIPFFAAFCLPVFAHPETLVKVKDAEDQLGARVGYIELDLNSGKILESFRPEERFPMMSTFKVLLCGAVLSRVDAGQEQLGRRIHYSQNDLVEYSPVTEKHLTDGMTVRELCSAAITMSDNTAANLLLTTIGGPKELTAFLHNMGDHVTRLDRWEPELNEAIPNDERDTTMPAAMATTLRKLLTGELLTLASRQQLIDWMEADKVAGPLLRSALPAGWFIADKSGAGERGSRGIIAALGPDGKPSRIVVIYTTGSQATMDERNRQNAEIGASLIKHW
modifications: TEM-1 beta-lactamase with a I279N mutation (mutation at residue 275)
Initial Rate, after CEST [7]: 0.047 ± 0.002 A482 min^−1
Initial Rate, before CEST [7]: 0.044 ± 0.003 A482 min^−1
